Structures are written as SMILES. Converted amounts (≈) assume the structure as drawn.

A short description of data set [1]: Oral bioavailability in human. It counts as ADME, organism-based. The following applies: in vivo.
A short description of data set [2]: Lipophilicity, log D of the compound at pH 7.4 by chromatographic method. It counts as physicochemical. Conditions: buffer.
The nature of data set [3]: Solubility of the compound in FaSSIF. It counts as physicochemical.
Data set [4] in a line: Solubility of the compound in pH 7.4 solution. It counts as physicochemical.
The next data set can be described thus: physchem. Conditions: aqueous.
A short description of data set [5]: Ratio of drug level in rat liver to plasma. The class given is ADME.
A short description of data set [6]: Oral bioavailability in rat. The class given is ADME, organism-based. The following applies: in vivo.

The term bioavailability denotes dose-corrected exposure relative to a reference, in per cent. A low value points to little systemic uptake. Take `Cc1nnc(C(C)C)n1C1C[C@@H]2CC[C@@H](C1)N2CC[C@H](NC(=O)C1CCC(F)(F)CC1)c1ccccc1` (some centres undefined): the bioavailability in data set [1] turned out to be 23%. What is called chromatographic logD is lipophilicity estimated from chromatographic retention. Low values mean a more hydrophilic compound, high ones a more lipophilic compound. `COc1cc2c(cc1Cc1cccc(Cl)c1F)c(=O)c(C(=O)O)cn2[C@H](CO)C(C)C`: the chromatographic logD in data set [2] came to 6.4. What is called solubility is how much of the substance goes into solution per volume. A lower solubility goes with little dissolved substance. As to `CC1(C)CCC(CN2CCN(c3ccc(C(=O)NS(=O)(=O)c4ccc(NCC5CCOCC5)c([N+](=O)[O-])c4)c(Oc4cnc5[nH]ccc5c4)c3)CC2)=C(c2ccc(Cl)cc2)C1` [VENETOCLAX], the values for the solubility in data set [3] and in data set [4] were 11 µg/mL (≈ 12.7 µM) and 0.4 µg/mL (≈ 0.461 µM), respectively. Take `CCC[C@H](NC(=O)[C@@H]1[C@H]2CCC[C@H]2CN1C(=O)[C@@H](NC(=O)[C@@H](NC(=O)c1cnccn1)C1CCCCC1)C(C)(C)C)C(=O)C(=O)NC1CC1`: in “physchem”, the solubility was 4.7 µg/mL (≈ 6.91 µM).

In data set [2], `C[C@@H]1CCO[C@H]2Cn3cc(C(=O)NCc4ccc(F)cc4F)c(=O)c(O)c3C(=O)N12` [DOLUTEGRAVIR] displayed a chromatographic logD of 3.7. Turning to `Cc1nnc(C(=O)NC(C)(C)c2nc(C(=O)NCc3ccc(F)cc3)c(O)c(=O)n2C)o1`, the chromatographic logD in data set [2] turned out to be 3.3. Usually Kp stands for tissue or fluid exposure divided by exposure in the circulation. As to `COC(=O)N[C@H](C(=O)N1CCC[C@H]1c1nc(-c2ccc(-c3ccc(-c4c[nH]c([C@@H]5CCCN5C(=O)[C@@H](NC(=O)OC)C(C)C)n4)cc3)cc2)c[nH]1)C(C)C`, in data set [5], the Kp is 5. This compound yielded a bioavailability in data set [6] of 50%.

(Values after ChEMBL document CHEMBL4190376, “Mapping the Efficiency and Physicochemical Trajectories of Successful Optimizations” (J Med Chem, 2018).)
